We go through 3 molecules from article PMC3743924 (The Biochemical journal, 2013).

Assay [1] has as its target T1, APH(3')-Ia (Escherichia coli, UniProt P00551). The conditions noted are these: Ca2+ complex; nucleotide site.
The target in assay [2] is T1, APH(3')-Ia. As to the kind of experiment: activity assay with kanamycin. The class given is biochemical. The conditions noted are these: co-substrate kanamycin; constants unpublished.
In assay [3] the target is T1, APH(3')-Ia. As to the kind of experiment: X-ray crystal structure, […]-2.[…] A. In kind it is binding. The conditions noted are these: ternary complex with kanamycin; ATP site; pH 4.5.

T1 sequence (P00551 whole entry): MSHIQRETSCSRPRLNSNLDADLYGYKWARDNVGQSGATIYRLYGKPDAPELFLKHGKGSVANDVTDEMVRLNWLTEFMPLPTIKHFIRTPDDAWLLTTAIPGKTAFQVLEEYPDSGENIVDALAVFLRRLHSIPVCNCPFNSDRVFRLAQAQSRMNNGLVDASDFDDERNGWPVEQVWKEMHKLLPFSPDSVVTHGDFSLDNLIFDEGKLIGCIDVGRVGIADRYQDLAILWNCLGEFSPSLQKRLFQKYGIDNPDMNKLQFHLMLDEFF

With `Nc1ncnc2c1ncn2[C@@H]1O[C@H](COP(=O)(O)OP(=O)(O)OP(=O)(O)O)[C@@H](O)[C@H]1O` [ATP], in assay [1], the “X-ray crystal structure, 2.3-2.4 A” value is reported as “unambiguous additional density corresponding to the ATP molecule”. With `Nc1nc2c(ncn2[C@@H]2O[C@H](COP(=O)(O)OP(=O)(O)OP(=O)(O)O)[C@@H](O)[C@H]2O)c(=O)[nH]1` [GTP], the “activity assay with kanamycin” value in assay [2] is “indicating GTP is a superior substrate”. On to `COc1cc2ncnc(Nc3cccc(Cl)c3)c2cc1OC` [Tyrphostin AG 1478, N-(3-chlorophenyl)-6,7-dimethoxyquinazolin-4-amine], for which the “X-ray crystal structure, 2.69-2.71 A” value in assay [3] is on record as “the inhibitor molecule was held in the NTP binding site through hydrophobic interactions”.
